According to patent US10253028B2, “Pyrazolo[3,4-D]pyrimidin derivative and its use for the treatment of leishmaniasis” (GlaxoSmithKline Intellectual Property Development Limited, priority 2015, dated 2019):

Columns and labels:
THP-1 cells = assay: Intramacrophage Leishmania donovani assay, cytotoxicity readout (THP-1 cell count); format: cell-based; details: 72 h incubation with compound; for EC50: Homo sapiens, THP-1, 72 h, read-out: pEC50 value against THP-1 cells (converted)
Description: (§1) Intra macrophage Leishmania donovani assay
(§2) The intramacrophage Leishmania assay was performed exactly as described in de Rycker et al (Antimicrob Agents Chemother. 2013 July; 57(7):2913-22. doi: 10.1128/AAC.02398-12. Epub 2013 Apr. 9. Comparison of a high-throughput high-content intracellular Leishmania donovani assay with an axenic amastigote assay. De Rycker M, Hallyburton I, Thomas J, Campbell L, Wyllie S, Joshi D, Cameron S, Gilbert I H, Wyatt P G, Frearson J A, Fairlamb A H, Gray D W.). Briefly, 1 μl of compound was pre-dispensed into 384 well sterile intermediary plates. For single point screening, amphotericin B was added to all wells of column 24 as a positive control (final concentration 2 μM) and DMSO to column 23. For potency determinations, ten-point, one in three dilution curves were created with the highest concentration being 50 μM and on each plate a control curve of amphotericin B was included. Controls were as follows: columns 11 and 12: DMSO, columns 23 and 24: amphotericin B (final concentration 2 μM). To the intermediary plates, 100 μl of THP-1 media was added and plates were shaken for >5 min to ensure complete mixing. THP-1 cells (8,000 per well, 50 μl) were plated into black clear-bottom 384 well plates (Corning) in presence of 10 nM PMA. After 20 min at RT, the plates were incubated at 37° C. under 5% CO2 in a humidified incubator for 75 h. The cells were then washed with 450 μl sterile phosphate buffered saline (PBS) supplemented with 1 mM CaCl2, 0.5 mM MgCl2, 0.1% (w/v) bovine serum albumin (PBS-A) and amastigotes were added to all wells at a multiplicity of infection of 5 (40,000 amastigotes per well). After 40 min at RT, plates were returned to the incubator. Amastigotes were incubated in the presence of macrophages for 16 h. […] For each well, i) THP-1 cell count (cytotoxicity readout) and ii) average number of amastigotes per cell (potency readout) were calculated, both in terms of pEC50 values.

[1] = tested on: Leishmania donovani amastigotes; assay: Intramacrophage Leishmania donovani assay, potency readout (average number of amastigotes per cell); format: cell-based; details: THP-1, 72 h, amastigotes in PMA-differentiated THP-1 macrophages, 72 h incubation with compound, read-out: pEC50 value against amastigotes (converted)
Description: as §1
as §2, with “mixing.” for “mixing. THP-1 cells (8,000 per well, 50 μl) were plated into black clear-bottom 384 well plates (Corning) in presence of 10 nM PMA. After 20 min at RT, the plates were incubated at 37° C. under 5% CO2 in a humidified incubator for 75 h. The cells were then washed with 450 μl sterile phosphate buffered saline (PBS) supplemented with 1 mM CaCl2, 0.5 mM MgCl2, 0.1% (w/v) bovine serum albumin (PBS-A) and amastigotes were added to all wells at a multiplicity of infection of 5 (40,000 amastigotes per well). After 40 min at RT, plates were returned to the incubator. Amastigotes were incubated in the presence of macrophages for 16 h.”

EC50 [1] | Compound | pEC50 value against THP-1 cells (THP-1 cells) | EC50 (THP-1 cells)
 | C[C@H]1CN(c2n[nH]c3nc(NC4CCC(NS(=O)(=O)CCC(F)(F)F)CC4)ncc23)CCO1 (single isomer, unassigned) [Formula (I)] | 4.3 | ≥ 39.8 µM
≤ 5.01 µM | C[C@@H]1CN(c2n[nH]c3nc(NC4CCC(NS(=O)(=O)CCC(F)(F)F)CC4)ncc23)CCO1 (single isomer, unassigned) [opposite enantiomer] |  | ≥ 39.8 µM
